Data reported in PubChem BioAssay (NCI).
Values joined by “and” are separate entries in the source; they are usually repeats but may differ in a detail not shown here. Equal values may be shown once.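 Following 48 hours of exposure in 96-well plates, responses at five concentrations were used to interpolate endpoints linearly. Abbreviation: GI50, concentration required for 50% inhibition of growth. The concentration for full growth arrest is given as TGI.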

Columns and labels:
Assay in all cases: growth of human tumour cells (NCI), 48 h
BT-549 breast = tested on: BT-549 breast
DU-145 prostate = tested on: DU-145 prostate
HS 578T breast = tested on: HS 578T breast
MDA-MB-435 = tested on: MDA-MB-435

Row | SMILES | TGI (BT-549 breast) | TGI (DU-145 prostate) | TGI (HS 578T breast) | TGI (MDA-MB-435) | GI50 (BT-549 breast) | GI50 (DU-145 prostate) | GI50 (HS 578T breast) | GI50 (MDA-MB-435)
1 | COC(=O)/C=C/c1cc2c(cc1-c1c(C(=O)O)cc(OC)c(OC)c1OC)OCO2 | > 10 µM | > 10 µM | > 10 µM | > 10 µM |  |  |  | 
2 | C[N+]1=C(/C=C\C=C\c2ccccc2)C(C)(C)c2ccccc21 | 9.29 µM | 16.1 µM | 22.4 µM | 5.17 µM | 2.34 µM | 4.62 µM | 4.6 µM | 2.01 µM
3 | CCN1CCN(CC(=O)N2c3cccc4cccc(c34)N(C(=O)CN3CCN(CC)CC3)C2c2cn(-c3ccccc3)nc2-c2cccc([N+](=O)[O-])c2)CC1 | 3.24 µM | 4.03 µM | 4.17 µM | 3.54 µM | 1.67 µM | 1.96 µM | 1.81 µM | 1.86 µM
4 | Cc1cc(N2CCOCC2)cc2[nH]c(-c3c(NC[C@@H](O)c4cccc(Cl)c4)cc[nH]c3=O)nc12 | 7.18 µM | 14.7 µM | 4.42 µM | 7.9 µM | 1.83 µM | 1.42 µM | 1.04 µM | 1.07 µM
5 | O=C(O)C1CC(O)CN1 (stereo unspecified) | > 100 µM | > 100 µM | > 100 µM | > 100 µM |  |  |  | 
6 | Cc1ccc(O)c(NC(=O)c2ccc(CNc3ccnc(C(F)(F)F)c3)cc2)c1 | 28.4 µM | 39.4 µM | 42.8 µM | 22.1 µM | 3.48 µM | 12.8 µM | 11.2 µM | 4.26 µM
7 | CN(Cc1cc(C(C)(C)C)cc(Br)c1O)Cc1cc(C(C)(C)C)cc(Br)c1O | 14.4 µM | 19.3 µM | 7.65 µM | 15.9 µM |  |  |  | 
8 | COc1cc(Nc2ncc(F)c(Nc3ccc4c(n3)N(COP(=O)(O)O)C(=O)C(C)(C)O4)n2)cc(OC)c1OC | 4.45 µM and 6.5 µM | 22.3 µM and > 10 µM | 4.27 µM and 0.59 µM | 22 µM and > 10 µM | 1.56 µM and 1.57 µM | 3.69 µM and 3.08 µM | 0.538 µM and 0.173 µM | 2.78 µM and 2.67 µM
9 | O=C(/C=C/c1ccc(C(F)(F)F)cc1)c1ccc(Nc2nc(NCCO)nc(Nc3ccc(Cl)cc3)n2)cc1 | 7.97 µM | 18.7 µM | 15.6 µM | 12.8 µM | 3.07 µM | 6.08 µM | 2.82 µM | 3.46 µM
10 | Cc1ncc(C(=O)Nc2ccc(CN3CCN(C)CC3)c(C(F)(F)F)c2)cc1C#Cc1cnc(N)cc1C#N | 3.58 µM | 2.75 µM | 1.72 µM | 1.61 µM | 1.36 µM | 0.278 µM | 0.204 µM | 0.084 µM
11 | CCN(CC)c1ccc(C(=O)c2ccc(N(CC)CC)cc2)cc1 | 16.5 µM | 7.23 µM | 1 µM | 0.43 µM | 0.629 µM | 0.623 µM | 0.237 µM | 0.0694 µM
